≈ marks a conversion by molar mass, not a printed value. Read-outs that look alike come from different tables or passages of the source.
Columns and labels:
[1] = system: Human rotavirus Wa group; test: Anti-rotavirus assay, prevention of cytopathic effect in MA104 cells (mixed treatment); format: cell-based; settings: for EC50: Human rotavirus, MA104, rotavirus 0.01 MOI, MA-104 cells, 72 h, CPE; for TI (CC50/EC50): therapeutic index
Method: In order to study whether the chromones and indole alkaloids from the stem bark of C. alata had more broad antiviral activities, compounds 1–5 were also tested for their anti-rotavirus activity. Their ability to prevent the cytopathic effects of rotavirus in MA104 cells was tested according to our previous literatures, and their effects were measured in parallel with the determination of antiviral activity using ribavirin as a positive control.
(§1) The anti rotavirus activities were tested according to our previous literature. Human rotavirus Wa group was used to infect the cell culture MA104 in vitro, the 50% cytotoxicity concentration (CC50) and half maximal effective concentration (EC50) were evaluated, and ribavirin (C8H12N4O5, CAS No. […], a broad-spectrum antiviral drug) was used as a positive control. MA-104 cells (1 × 10^5 cells per well) were grown in 96-well plates for 48 h. The media were removed and replaced by new media containing serial dilutions of compounds under test. After incubation for 72 h, the media were discarded, and 5.0 μL of MTT solution was added to each well. Plates were then incubated at 37 °C for 4 h. The solution was removed, and 100 μL of 0.04 mol/L HCl-isopropanol was added to each well to dissolve formazan crystals. Using a microplate reader, the absorbance of each well was measured at 540 nm. After subtracting the background absorbance at 655 nm, the 50% CC50 of each compound was estimated by regression analysis.
In the mixed treatment assay, each compound was mixed with a 0.01 multiplicity of infection (MOI) of the rotaviruses at various concentrations (1–160 μg/mL) and incubated at 4 °C for 1 h. The mixtures were inoculated in triplicates onto near confluent MA-104 cell monolayers (1 × 10^5 cells per well) for 1 h with occasional rocking. The solution was removed, and the cells were replaced with eagles minimum essential medium (EMEM) containing 1 μg/mL trypsin. […] EC50 was estimated by regression analysis.

[2] = Cytotoxicity in MA-104 cells (MTT); format: cell-based; settings: African green monkey
Method: as §1

[3] = system: tobacco mosaic virus (TMV); test: Anti-TMV activity, half-leaf method; format: in vivo; settings: in Nicotiana glutinosa; for inhibition at 20 µM: read-out: % Inhibition at 20 µM
Method: The anti-TMV activities were tested using the half-leaf method according to our previous studies, and Ningnanmycin (C16H23O8N7, CAS No. 156410-09-2), a commercial cytosine nucleoside peptide type antibiotics for plant disease in China, was used as a positive control. The virus was inhibited by mixing with the solution of tested compounds (20 μM in DMSO). After 30 min, the mixture was inoculated on the left side of the leaves of N. glutinosa, whereas the right side of the leaves was inoculated with the mixture of DMSO solution with the virus as control. The local lesion numbers were recorded 3–4 days after inoculation. Three repetitions were conducted for each compound. The inhibition rates were calculated according to the formula: inhibition rate (%) = [(C − T)/C] × 100%(1) where C is the average number of local lesions of the control and T is the average number of local lesions of the treatment. Ningnanmycin (20 μM in DMSO), a commercial virucide for plant disease in China, was used as a positive control.

[4] = system: TMV; test: Protective effect on TMV (pretreatment of tobacco plant before inoculation); format: in vivo; settings: Tobacco mosaic virus; tobacco plant pretreated with 20 μM solution for 6 h before inoculation with TMV; read-out: protective effect inhibition rate
Method: For compounds with significant activities in half-leaf method assays, their protective effects on TMV were also evaluated by pretreating a tobacco plant with 20 μM solutions of compounds in DMSO, or a solution of DMSO for 6 h before inoculation with TMV.

Structure (SMILES)	EC50 [1] [µg/mL]	TI (CC50/EC50) [1]	CC50 at 72 h [2] [µg/mL]	IC50 [3] [µM]	inhibition at 20 µM [3] [%]	inhibition at 20 µM [4] [%]	CC50 at 72 h ([2]; MA-104 cells, 72 h, MTT, read-out: CC50) [µg/mL]
COc1cc(C)cc2c1CN(Cc1ccc3c(c1CC(C)=O)OC(C)(C)CC3=O)C2=O [Compound 5, 2-((3,4-Dihydro-2,2-dimethyl-4-oxo-8-(2-oxopropyl)-2H-chromen-7-yl)methyl)-4-methoxy-6-methyl-isoindolin-1-one]	12.8 (≈ 30.4 µM)	12.0	154 (≈ 364 µM)	43.4	31.8 ± 3.3	–	–
COc1cc(C)cc2c1CN(C)C2=O [Compound 1, 4-Methoxy-2,6-dimethylisoindolin-1-one]	14.6 (≈ 76.3 µM)	9.75	142 (≈ 745 µM)	55.3	26.5 ± 2.8	–	–
CC(=O)Cc1c(CO)ccc2c1OC(C)(C)CC2=O [Compound 4, 7-(Hydroxymethyl)-2,2-dimethyl-8-(2-oxopropyl)chroman-4-one]	15.5 (≈ 59.1 µM)	12.4	192 (≈ 734 µM)	17.9	52.3 ± 3.6	49.3	–
CNCC(=O)N[C@@H](CO)C(=O)N[C@H]1[C@H](O)[C@@H](O)[C@H](n2ccc(N)nc2=O)O[C@@H]1C(N)=O [Ningnanmycin, reference compound]	–	–	–	37.2	32.8 ± 3	–	–
NC(=O)c1ncn([C@@H]2O[C@H](CO)[C@@H](O)[C@H]2O)n1 [Ribavirin, reference compound]	12.2 (≈ 50 µM)	19.2	–	–	–	–	234 (≈ 960 µM)
COc1cc(CO)cc2c1CN(C)C2=O [Compound 2, 6-(Hydroxymethyl)-4-methoxy-2-methylisoindolin-1-one]	14.8 (≈ 71.4 µM)	11.8	175 (≈ 845 µM)	22.6	44.4 ± 3.5	40.8	–
COc1cc(CCCO)cc2c1CN(C)C2=O [Compound 3, 6-(3-Hydroxypropyl)-4-methoxy-2-methylisoindolin-1-one]	13.6 (≈ 57.8 µM)	15.3	208 (≈ 885 µM)	14.2	66.5 ± 4	68.2	–

Source: article PMC9144915, “Indole Alkaloids and Chromones from the Stem Bark of Cassia alata and Their Antiviral Activities” (Molecules, 2022)
